Earlier results, collected in patent publication US10638990B2, “Sunscreen compositions with improved water resistance of UVA sunscreen active agents” (Edgewell Personal Care Brands, LLC, priority 2015, dated 2020).

Conditions: calculated partition coefficient between octanol and water

Structure (SMILES) | Log P @25° C.
CCOCCOC(=O)/C=C/c1ccc(OC)cc1 [Cinoxate, Ethoxyethyl methoxy cinnamate] | 2.55
CCOC(=O)c1ccc(N(CC(C)O)CC(C)O)cc1 (stereo not drawn) [Ethyl dihydroxypropyl PABA, Ethyl-4-bis(2-hydroxypropyl-aminobenzoate)] | 2.84
CC1CCC(C(C)C)C(OC(=O)c2ccccc2N)C1 (stereo not drawn) [Menthyl anthranilate, Menthyl-O-aminobenzoate] | 5.05
